Results reported in patent US8338414B2, “Immunosuppressive agent and anti-tumor agent comprising heterocyclic compound as active ingredient” (Zenyaku Kogyo KabushikiKaisha, priority 2005, dated 2012).
pIC50: −log10 of the molar value. Like-named read-outs stand apart in the source and are kept apart here.

How the values were obtained:
[1] = system: THP-1 cells; assay: Proliferation inhibitory activity on hematologic neoplasm cells, THP-1; type: cell-based; details: Homo sapiens, THP-1, 72 h; 3 days, Alamar Blue
Method: (§1) Daudi cells (5×10^5 cells/mL), Jurkat cells (5×10^5 cells/mL), THP-1 cells (5×10^5 cells/mL), U 937 cells (5×10^5 cells/mL), and HL 60 cells (5×10^5 cells/mL) suspended in RPMI 1640 medium (containing 10% fetal bovine serum, 10 mM HEPES, 1 mM pyruvic acid, 4.5 g/L glucose, 100 units/mL penicillin, and 0.1 mg/mL streptomycin) were seeded in 96 well plates at a capacity of 0.135 mL per well. Serial dilutions of test substances were added to respective wells at 15 μL/well, and incubated under conditions of carbon dioxide 5% at 37° C. for 3 days. Thereafter, Alamar Blue solution was added at 50 μL, and after incubation for one day, the fluorescence intensity at 590 nm using an excitation wavelength of 530 nm was determined by Cytoflour 4000 (Applied Biosystems).

[2] = system: mouse spleen cells; assay: Proliferation inhibition assay for mouse spleen cells; type: cell-based; details: 72 h, 3 days, Alamar Blue
How it was run: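 C57BL/6N female mouse spleen cells (2×10^6 cells/mL) stimulated with Con A (3 μg/mL), LPS (100 μg/mL) or anti-mouse IgM (100 μg/mL) alongside serially diluted compounds, 3 days at 37° C, 5% CO2. Alamar Blue added for a further day; fluorescence read at ex 530/em 590 nm.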

[3] = system: Jurkat cells; assay: Proliferation inhibitory activity on hematologic neoplasm cells, Jurkat; type: cell-based; details: Homo sapiens, Jurkat, 72 h; 3 days, Alamar Blue
Method: as §1

[4] = system: Salmonella typhimurium TA98, TA100, TA1535, TA1537 and Escherichia coli WP2uvrA; assay: Ames test; type: cell-based; details: preincubation method, with or without S-9, up to 5000 μg/flat plate
Method: Using 5 strains of Salmonella typhimurium TA98, TA100, TA1535, TA1537 and Escherichia coli WP2uvrA, the test substances (Compound 4, Compound 19, Compound 22 and Compound 24) were tested for their mutagenesis according to a preincubation method.

[5] = system: Daudi cells; assay: Proliferation inhibitory activity on hematologic neoplasm cells, Daudi; type: cell-based; details: Homo sapiens, Daudi, 72 h; 3 days, Alamar Blue
Method: as §1

[6] = system: allogeneic mixed lymphocyte reaction; assay: Allogeneic mixed lymphocyte reaction; type: cell-based, mouse; details: Mus musculus, Lymphocyte; C57BL/6N spleen stimulator cells, BALB/c lymph node responder cells, 86 hours, BrdU
Method: Spleen cells prepared from C57BL/6N female mice (8-10 weeks old, purchased from Charles River Laboratories Japan Inc.) and peripheral lymph node mononuclear cells prepared from BALB/c female mice (8-10 weeks old, purchased from Charles River Laboratories Japan Inc.) were used as stimulator cells and responder cells, respectively. The respective cells were suspended in RPMI 1640 medium (containing 10% fetal bovine serum, 100 units/mL penicillin, and 0.1 mg/mL streptomycin) (with 2×10^6 cells/mL).

[7] = system: human peripheral blood mononuclear cells; assay: Activation inhibition assay for human peripheral blood mononuclear cells (CD40L, CD69 expression); type: cell-based; details: PBMC, anti-CD3 + anti-CD28, 6 hours, flow cytometry
Method: In accordance with the method of Assay Example 2, PBMC (2×10^6 cells/mL) was isolated from human peripheral blood, suspended in RPMI 1640 medium (containing 10% fetal bovine serum, 10 mM HEPES, 1 mM pyruvic acid, and 4.5 g/L glucose), and seeded in wells of a 96 well plate at 0.225 mL per well. The test substances were added to respective wells, and then an anti-CD3 antibody (2 μg/mL) and an anti-CD28 antibody (1 μg/mL) were added. Then, after incubation under conditions of carbon dioxide 5% at a temperature 37° C. for 6 hours, the expressions of CD40L and CD69, activation markers, were analysed by flow cytometry. As a result, when the cells were stimulated by both an anti-CD3 antibody and an anti-CD28 antibody, CD40L was expressed on 14.4% of PBMC, which was also CD4 positive. However, the proportion of the cells which expressed CD40L decreased when the cells had been treated with test substances (Compound 4: 4.9%; Compound 20: 3.7%, Compound 24: 3.6%).

[8] = system: U 937 cells; assay: Proliferation inhibitory activity on hematologic neoplasm cells, U937; type: cell-based; details: Homo sapiens, U-937, 72 h; 3 days, Alamar Blue
Method: as §1

[9] = system: Rabbit synoviocytes HIG-82; assay: Inhibition assay for proliferation of rabbit synoviocyte; type: cell-based; details: Oryctolagus cuniculus, 72 h; HIG-82, 3 days, Alamar Blue
Method: Rabbit synoviocytes HIG-82 suspended in HAM medium (containing 10% fetal bovine serum, 25 mM HEPES, and 0.1 mg/mL kanamycin) (with 4×10^4 cells/mL) were seeded in wells of a 96 well plate at 0.135 mL per well. Then, 15 μL of each of serial dilutions of test substances was added to a respective well, and incubated under conditions of carbon dioxide 5% at a temperature 37° C. Alamar Blue solution was added at 50 μL per well on day 0 and day 3, and incubated for one day, and thereafter fluorescence intensity at 590 nm using an excitation wavelength of 530 nm was determined by Cytoflour 4000 (Applied Biosystems).

[10] = system: human peripheral blood mononuclear cells; assay: Proliferation inhibition assay for human peripheral blood mononuclear cells; type: cell-based; details: Homo sapiens, 72 h; PBMC, anti-CD3 and anti-CD28 antibody, 3 days, Alamar Blue
Method: 4 mL of blood collected from healthy subjects was placed on 3 mL of MonoPoly Resolving Medium, and after centrifugation, the mononuclear cell (PBMC) fraction was collected. After washing with saline, PBMC (1×10^5 cells/mL) was suspended in RPMI 1640 medium (containing 10% fetal bovine serum, 10 mM HEPES, 1 mM pyruvic acid, and 4.5 g/L glucose). Next, after having added an anti-CD28 antibody (1 μg/mL) to the suspension, they were seeded on an anti-human CD3 T cell activation plate (BD Bioscience) at a capacity of 0.135 mL per well. Then, serial dilutions of test substances were added to respective wells, and incubated under conditions of carbon dioxide 5% at a temperature 37° C. After 3 days, Alamar Blue solution was added at 50 μL per well, and after incubation for one day, a fluorescence intensity at 590 nm using an excitation wavelength of 530 nm was determined by Cytoflour 4000 (Applied Biosystems).

[11] = system: HL 60 cells; assay: Proliferation inhibitory activity on hematologic neoplasm cells, HL60; type: cell-based; details: Homo sapiens, HL-60, 72 h; 3 days, Alamar Blue
Method: as §1

[12] = system: fulminant hepatitis; assay: Fulminant hepatitis model (galactosamine and LPS); type: in vivo, mouse; details: BALB/c mice, galactosamine 800 mg/kg and LPS 110 μg/kg i.p.
Method: BALB/c male mice (7 weeks old, purchased from Charles River Laboratories Japan Inc.) were used in the experiment. After having orally administered the test substances suspended in 5% HPC, galactosamine (800 mg/kg) and LPS (110 μg/kg) were intraperitoneally administered. Then, survival rates at 72 hours after administration were obtained.

[13] = system: A549 lung cancer cells; assay: Proliferation inhibitory activity on solid tumor cells, A549; type: cell-based; details: Homo sapiens, 72 hours
Method: (§2) Used in the test were MCF-7 cells which were established from human breast cancer and were cultured routinely under the conditions of 37° C. and 5% CO2, in MEM medium supplemented with 10% fetal calf serum, 25 mM of HEPES and 0.1 mg/ml kanamycin. The MCF-7 cells in a logarithmic growth phase were treated with trypsin/EDTA to prepare single cell suspension adjusted to 4.0×10^4 cells/ml in MEM medium (supplemented with 10% fetal calf serum, 25 mM of HEPES and 0.1 mg/ml kanamycin). Test compounds were dissolved in DMSO and diluted with RPMI 1640 medium (supplemented with 10% fetal calf serum, 25 mM of HEPES and 0.1 mg/ml kanamycin) to a concentration of […] to 2.0×10^−9M.
(§3) The cell suspension was filled in a 96-wells microplate at a rate of 0.1 ml per well and was cultured for 24 hours so as to make the cells to adhere to the microplate. Then, it was added with 0.1 ml of the sample solution and cultured at 37° C. for 72 hours in 5% CO2.
(§4) 50% Growth inhibition concentrations (GI50 μM) were calculated from growth inhibitions at various sample concentrations.
(§5) In the foregoing, when the cells other than MCF-7 are used, instead of adding 10% fetal bovine serum, the following media were used, and the following single cell suspensions were prepared. • PC-3 prostate cancer cells: 10% fetal bovine serum in F12K medium, single cell suspension of 2×10^4 cells; • A549 lung cancer cells: 10% fetal bovine serum in DMEM medium, single cell suspension of 1.5×10^4 cells; • WiDr colon cancer cells: 10% fetal bovine serum in MEM medium, single cell suspension of 3×10^4 cells; • B16F10 melanoma cells: 10% fetal bovine serum in RPMI 1640 medium, single cell suspension of 1×10^4 cells;

[14] = system: PC-3 prostate cancer cells; assay: Proliferation inhibitory activity on solid tumor cells, PC-3; type: cell-based; details: 72 hours
Method: as §2, §3, §4, §5

[15] = system: WiDr colon cancer cells; assay: Proliferation inhibitory activity on solid tumor cells, WiDr; type: cell-based; details: Homo sapiens, 72 hours
Method: as §2, §3, §4, §5

[16] = system: B16F10 melanoma cells; assay: Proliferation inhibitory activity on solid tumor cells, B16F10; type: cell-based; details: Mus musculus, B16-F10; 72 hours
Method: as §2, §3, §4, §5

[17] = system: MCF-7 cells; assay: Proliferation inhibitory activity on solid tumor cells, MCF-7; type: cell-based; details: Homo sapiens, MCF7; 72 hours
Method: as §2, §3, §4

[18] = LPS 100 μg/mL, read-out: Inhibition of LPS response
[19] = concanavalin A 3 μg/mL, read-out: Inhibition of Con A response
[20] = anti-mouse IgM antibody 100 μg/mL, read-out: Inhibition of Anti-IgM antibody response

CC1(C)CN(c2nc(N3CCOCC3)nc(-n3c(C(F)F)nc4c(Cl)cc(N)cc43)n2)CCO1 [Compound 19, 2-(6-Amino-4-chloro-2-difluoromethylbenzimidazol-1-yl)-4-(2,2-dimethylmorpholino)-6-morpholino-1,3,5-triazine] gave a pIC50 [1] of 6.92, a pIC50 [2, 18] of 7.00 to 9.00 and a pIC50 [2, 19] of 7.00 to 9.00. The pIC50 [3] was 5.80, the “mutagenesis (colony number of reverse mutation)” value [4] was “negative” and the pIC50 [5] was 7.67. For the same compound, the melting point was 238 °C (dec.).
For OCC1CCCN1c1nc(N2CCOCC2)nc(-n2c(C(F)F)nc3c(O)cccc32)n1 (stereo not shown) [Compound 20, 2-(2-Difluoromethyl-4-hydroxybenzimidazol-1-yl)-4-(2-hydroxymethylpyrrolidin-1-yl)-6-morpholino-1,3,5-triazine], the pIC50 [1] was 7.36, the pIC50 [6] was 6.87 and the pIC50 [2, 18] was ≥ 9.00. For the same compound, the pIC50 [2, 20] was ≥ 9.00, the pIC50 [2, 19] was ≥ 9.00 and the pIC50 [3] was 6.71. For the same compound, the “proportion of the cells which expressed CD40L” value ([7]; CD4 positive, 14.4% without test substance) was 3.7%, the “proportion of CD4-positive cells which expressed CD69” value ([7]; 28.8% without test substance) was 10.1% and the “proportion of CD4-negative cells which expressed CD69” value ([7]; 50.9% without test substance) was 10.5%. It also gave a pIC50 [8] of 6.60, a pIC50 [5] of 8.08 and a pIC50 [9] of 6.91. For the same compound, the pIC50 [10] was 8.09, the pIC50 [11] was 7.13 and the “Survival Rate after 72 Hours” value ([12]; 50 mg/kg oral) was 17%. The “Survival Rate after 72 Hours” value ([12]; 100 mg/kg oral) was 72%.
For CC1(C)COCCN1c1cc(N2CCOCC2)nc(-n2c(C(F)F)nc3c(O)cccc32)n1 [Compound 22, 2-(2-Difluoromethyl-4-hydroxybenzimidazol-1-yl)-4-(3,3-dimethylmorpholino)-6-morpholinopyrimidine], the pIC50 [2, 18] was ≥ 9.00, the pIC50 [2, 20] was ≥ 9.00 and the pIC50 [2, 19] was ≥ 9.00. For the same compound, the “mutagenesis (colony number of reverse mutation)” value [4] was “negative” and the melting point was 204 to 206 °C.
In the case of O=C1CCN(c2nc(N3CCOCC3)nc(-n3c(C(F)F)nc4ccccc43)n2)CCN1 [Compound 25, 2-(2-Difluoromethylbenzimidazol-1-yl)-4-morpholino-6-(5-oxo-1,4-diazepan-1-yl)-1,3,5-triazine], the pIC50 [1] was 6.42, the GI50 [13] was 990 nM and the GI50 [14] was 270 nM. It also gave a pIC50 [2, 18] of 5.00 to 7.00, a pIC50 [2, 19] of 7.00 to 9.00 and a pIC50 [3] of 5.80. The GI50 [15] was 920 nM, the GI50 [16] was 3210 nM and the pIC50 [5] was 6.72. The pIC50 [9] was 6.00, the GI50 [17] was 980 nM and the melting point was 235 to 237 °C.
For OCCN1CCN(c2nc(N3CCOCC3)nc(-n3c(C(F)F)nc4ccccc43)n2)CC1 [Compound 27, 2-(2-Difluoromethylbenzimidazol-1-yl)-4-[4-(2-hydroxyethyl)piperazin-1-yl]-6-morpholino-1,3,5-triazine], the pIC50 [1] was 6.14, the GI50 [13] was 1120 nM and the GI50 [14] was 310 nM. The pIC50 [2, 18] was 5.00 to 7.00, the pIC50 [2, 19] was ≥ 9.00 and the pIC50 [3] was 5.44. It also gave a GI50 [15] of 1320 nM, a GI50 [16] of 4630 nM and a pIC50 [5] of 6.49. The pIC50 [9] was 5.81, the GI50 [17] was 1140 nM and the melting point was 174 to 177 °C.
COCC(=O)N1CCN(c2nc(N3CCOCC3)nc(-n3c(C(F)F)nc4ccccc43)n2)CC1 [Compound 33, 2-(2-Difluoromethylbenzimidazol-1-yl)-4-(4-methoxylacetylpiperazin-1-yl)-6-morpholino-1,3,5-triazine] showed a GI50 [13] of 1050 nM, a GI50 [14] of 510 nM and a GI50 [15] of 1460 nM. The GI50 [16] was 2910 nM, the GI50 [17] was < 40 nM and the melting point was 72 to 75 °C.
For CCC(=O)N1CCN(c2nc(N3CCOCC3)nc(-n3c(C(F)F)nc4ccccc43)n2)CC1 [Compound 35, 2-(2-Difluoromethylbenzimidazol-1-yl)-4-morpholino-6-(4-propionylpiperazin-1-yl)-1,3,5-triazine], the GI50 [13] was 1220 nM, the GI50 [14] was 730 nM and the GI50 [15] was 2100 nM. For the same compound, the GI50 [16] was 2840 nM, the GI50 [17] was 100 nM and the melting point was 198 to 202 °C.
